Results from patent US6410792B1, “Amide derivatives and methods for using the same as selective neuropeptide Y receptor antagonists” (Bayer Corporation, priority 1997, dated 2002).
Where a name gives a salt, the structure may show the parent alone. Read-outs that look alike come from different tables or passages of the source.

Tests used:
Human NPY1 receptor = biological target: T1, Human NPY1 receptor (Homo sapiens, UniProt P25929); experiment: Human NPY1 receptor binding assay ([125I]PYY, SK-N-MC cells)
T1 construct: host or cells: SK-N-MC cells
T1 sequence (P25929 1-384): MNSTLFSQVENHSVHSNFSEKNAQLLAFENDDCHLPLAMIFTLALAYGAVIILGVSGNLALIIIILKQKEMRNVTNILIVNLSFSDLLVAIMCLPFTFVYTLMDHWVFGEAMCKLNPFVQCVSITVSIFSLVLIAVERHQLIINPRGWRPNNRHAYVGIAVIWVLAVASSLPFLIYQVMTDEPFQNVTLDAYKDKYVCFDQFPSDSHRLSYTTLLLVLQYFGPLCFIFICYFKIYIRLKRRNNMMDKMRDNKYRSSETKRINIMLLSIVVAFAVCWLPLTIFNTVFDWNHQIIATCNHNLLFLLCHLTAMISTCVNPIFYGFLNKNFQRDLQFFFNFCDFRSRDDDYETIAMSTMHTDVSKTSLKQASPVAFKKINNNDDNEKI
Summary of the method: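 Confluent SK-N-MC cells preincubated 30 min at room temperature in serum-free DMEM/25 mM HEPES pH 7.3 with BSA, bacitracin and PMSF, then incubated 3 h at room temperature with compound and ~50 pM [125I]PYY. Nonspecific binding defined with 1 μM NPY; bound radioactivity counted after Triton X-100 lysis.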

Y2 receptor = biological target: T2, Y2 receptor (Homo sapiens, UniProt P49146); experiment: Y2 receptor binding assay ([125I]PYY, membrane protein); settings: [125I]PYY, membrane protein; read-out: hNPY2 IC50
T2 sequence (P49146 1-381): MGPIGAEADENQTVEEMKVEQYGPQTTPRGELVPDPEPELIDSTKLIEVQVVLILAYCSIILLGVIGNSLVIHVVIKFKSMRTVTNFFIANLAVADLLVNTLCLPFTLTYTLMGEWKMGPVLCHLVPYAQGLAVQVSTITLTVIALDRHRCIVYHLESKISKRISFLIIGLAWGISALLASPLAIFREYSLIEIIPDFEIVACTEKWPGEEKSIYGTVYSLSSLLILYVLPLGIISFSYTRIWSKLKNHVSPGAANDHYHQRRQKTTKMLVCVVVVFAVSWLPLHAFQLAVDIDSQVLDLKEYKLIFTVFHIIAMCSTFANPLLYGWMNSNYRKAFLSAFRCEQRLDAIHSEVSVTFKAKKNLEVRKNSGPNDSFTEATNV
Summary of the method: (§1)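 Filtration binding with membrane protein and drug dilution, 2 h at room temperature with mixing, radioactivity counted by gamma or scintillation. Y2: 25 pM [125I]PYY in Krebs-Ringer bicarbonate pH 7.4 with 0.01% BSA, nonspecific by 1 μM NPY. Y4/PP1: 50 pM [125I]hPP in HEPES-buffered saline pH 7.4 with protease inhibitors and 0.3% BSA, nonspecific by 1 μM hPP.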

human Y4/PP1 receptor = human Y4/PP1 receptor (Homo sapiens, UniProt P50391); experiment: Human Y4/PP1 receptor binding assay ([125I]human PP, membrane protein)
Sequence of human Y4/PP1 receptor (P50391 whole entry): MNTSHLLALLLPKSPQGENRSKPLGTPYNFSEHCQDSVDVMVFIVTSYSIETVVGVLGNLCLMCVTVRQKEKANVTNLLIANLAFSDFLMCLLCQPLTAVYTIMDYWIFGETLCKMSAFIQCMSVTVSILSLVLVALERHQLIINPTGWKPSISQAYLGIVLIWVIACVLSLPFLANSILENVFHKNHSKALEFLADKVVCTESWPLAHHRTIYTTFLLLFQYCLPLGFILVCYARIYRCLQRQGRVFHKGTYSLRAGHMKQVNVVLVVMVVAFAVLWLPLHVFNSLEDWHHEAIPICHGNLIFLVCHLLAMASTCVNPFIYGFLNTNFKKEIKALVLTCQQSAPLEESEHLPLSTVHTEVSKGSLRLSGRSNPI
Summary of the method: as §1

Human NPY5 receptor = biological target: T3, Human NPY5 receptor (Homo sapiens, UniProt Q15761); experiment: Human NPY5 receptor binding assay ([125I]PYY, membrane protein)
T3 sequence (Q15761 1-445): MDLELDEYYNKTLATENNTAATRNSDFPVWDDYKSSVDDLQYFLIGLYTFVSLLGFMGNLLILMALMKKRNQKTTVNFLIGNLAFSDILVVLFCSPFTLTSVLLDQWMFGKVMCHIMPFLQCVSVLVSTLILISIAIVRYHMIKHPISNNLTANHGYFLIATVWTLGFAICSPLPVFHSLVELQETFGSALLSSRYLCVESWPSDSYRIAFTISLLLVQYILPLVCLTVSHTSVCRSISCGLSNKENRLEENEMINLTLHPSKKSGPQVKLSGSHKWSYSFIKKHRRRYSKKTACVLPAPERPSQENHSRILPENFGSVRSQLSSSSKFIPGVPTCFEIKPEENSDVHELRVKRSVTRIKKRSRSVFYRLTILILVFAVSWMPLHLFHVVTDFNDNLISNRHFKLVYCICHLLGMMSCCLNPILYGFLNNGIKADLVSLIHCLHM
Summary of the method: (§2)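 Membrane protein incubated 2 h at room temperature with 75-100 pM porcine [125I]PYY and compound in pH 7.4 Tris buffer with salts, 0.1% BSA and bacitracin. Nonspecific binding with 1 μM PYY. Filtration, then gamma or scintillation counting.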

Rat NPY5 receptor [1] = biological target: T4, Rat NPY5 receptor (Rattus norvegicus, UniProt Q63634); experiment: Rat NPY5 receptor binding assay ([125I]PYY, membrane protein)
T4 sequence (Q63634 1-445): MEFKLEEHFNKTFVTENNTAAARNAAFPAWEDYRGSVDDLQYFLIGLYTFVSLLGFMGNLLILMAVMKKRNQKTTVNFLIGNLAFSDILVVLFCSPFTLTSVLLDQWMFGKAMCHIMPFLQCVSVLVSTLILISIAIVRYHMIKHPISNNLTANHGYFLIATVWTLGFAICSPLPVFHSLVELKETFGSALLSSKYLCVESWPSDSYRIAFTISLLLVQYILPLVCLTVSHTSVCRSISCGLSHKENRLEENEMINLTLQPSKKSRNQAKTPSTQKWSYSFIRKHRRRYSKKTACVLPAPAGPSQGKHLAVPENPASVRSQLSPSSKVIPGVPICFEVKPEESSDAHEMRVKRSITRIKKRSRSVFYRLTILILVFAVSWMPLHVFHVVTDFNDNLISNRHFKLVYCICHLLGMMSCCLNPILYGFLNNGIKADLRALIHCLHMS
Summary of the method: as §2

Rat NPY5 receptor [2] = biological target: T4, Rat NPY5 receptor; experiment: Rat NPY5 cyclase assay (in vitro functional assay, forskolin-stimulated adenylate cyclase, cAMP); type: cell-based; settings: 20 min; 10 μM; percentage of forskolin-stimulated adenylate cyclase; read-out: rNPY5 % FSAC (10 μM)
Procedure: D. Rat NYP5 Cyclase Assay (In Vitro Functional Assay)
Cells stably expressing the rat NPY5 receptor are resuspended in serum-free DMEM containing 10 mM HEPES (pH 7.4) and 1 mM isobutylmethylxanthine (IBMX). […] forskolin and drug dilution are then added to the cells. After a 20 minute incubation of the samples at 37° C, the assay is stopped by placing the samples in boiling water for 3 minutes. The cAMP produced in each sample is quantitated with a radioimmunoassay kit (NEN DuPont). Data are expressed as a percentage of forskolin-stimulated adenylate cyclase.

[3] = [125I]PYY, SK-N-MC cells, read-out: hNPYI IC50
[4] = [125I]human PP, membrane protein, read-out: hNPY4 IC50
[5] = [125I]PYY, read-out: hNPY5 IC50
[6] = [125I]PYY, read-out: rNPY5 IC50

SMILES	IC50 (Human NPY1 receptor; [3]) [nM]	IC50 (Y2 receptor) [nM]	IC50 (human Y4/PP1 receptor; [4]) [nM]	IC50 (Human NPY5 receptor; [5]) [nM]	IC50 (Rat NPY5 receptor [1]; [6]) [nM]	melting point [°C]	IC50 (Human NPY5 receptor; hNPY5 IC50, [125I]PYY) [nM]	IC50 (Rat NPY5 receptor [1]; rNPY5 IC50, [125I]PYY) [nM]	activity at 10 µM (Rat NPY5 receptor [2]) [%]	IC50 (Human NPY1 receptor) [nM]	IC50 (human Y4/PP1 receptor) [nM]
CC(=O)NC1CCN(CC(=O)Nc2ccc(C3CCCCC3)cc2)C1.O=C(O)C(=O)O (stereo not drawn) [Compound 293, 2-(3-Acetylamino-pyrrolidin-1-yl)-N-(4-cyclohexyl-phenyl)-acetamide; compound with oxalic acid]	> 5000	> 5000	> 5000	190	170	122					
CCCOC1(c2ccccc2)CCN(CC(=O)Nc2ccc(C3CCCCC3)cc2)CC1 [Compound 294, N-(4-Cyclohexyl-phenyl)-2-(4-phenyl-4-propoxy-piperidin-1-yl)-acetamide; hydrochloride]	> 5000	> 5000	> 5000				51	50	101		
N#CC1(c2ccccc2)CCN(CC(=O)Nc2ccc(C3CCCCC3)cc2)CC1 [Compound 295, 2-(4-Cyano-4-phenyl-piperidin-1-yl)-N-(4-cyclohexyl-phenyl)-acetamide; hydrochloride]		> 5000		4.7				4.5	101	> 5000	> 5000
Cl.O=C(CN1CCC(n2c(=O)[nH]c3ccccc32)CC1)Nc1ccc2c(c1)C(=O)c1ccccc1-2 [Compound 306, 2-[4-(2-Oxo-2,3-dihydro-benzoimidazol-1-yl)-piperidin-1-yl]-N-(9-oxo-9H-fluoren-2-yl)-acetamide; hydrochloride]	> 5000	> 5000	> 5000	44	35	204					
O=C(CN1CCC(n2c(=O)[nH]c3ccccc32)CC1)Nc1cccc2c1-c1ccccc1C2=O [Compound 308, 2-[4-(2-Oxo-2,3-dihydro-benzoimidazol-1-yl)-piperidin-1-yl]-N-(9-oxo-9H-fluoren-4-yl)-acetamide]	> 5000	> 5000	> 5000	360	300	205					
Cl.O=C(CN1CCC(n2c(=O)[nH]c3ccccc32)CC1)Nc1ccc2oc3ccccc3c2c1 [Compound 310, N-Dibenzofuran-2-yl-2-[4-(2-oxo-2,3-dihydro-benzoimidazol-1-yl)-piperidin-1-yl]-acetamide; hydrochloride]	> 5000	> 5000	> 5000	34	34	186					
O=C(Nc1ccc(-c2ccccc2)cc1)C(c1ccccc1)N1CCC(n2c(=O)[nH]c3ccccc32)CC1 (stereo not drawn) [Compound 312, N-Biphenyl-4-yl-2-[4-(2-oxo-2,3-dihydro-benzoimidazol-1-yl)-piperidin-1-yl]-2-phenyl-acetamide]	> 5000	> 5000	> 5000			207 to 210	32	24			
